Measured values from patent publication US20060241108A1, “Substituted phenoxazines and acridones as inhibitors of AKT” (St. Jude Children's Research Hospital, priority 2005, published 2006).

Columns and labels:
AKT [1] = assay: Translocation of AKT from cytoplasm to nucleus in Rh1 cells, confocal microscopy; assay type: cell-based, human; conditions: 5 μM, 1 hour, IGF-1 10 ng/ml 20 minutes
Method: Translocation of AKT in Rh1 cells. Rh1 cells (2×10^5 per chamber) can be grown on 2-well glass chamber slides (available from Falcon, Franklin Lakes, N.J.) in serum-free medium containing fibronectin (10 μg/ml). Preferably after twenty hours, the cells are exposed to DMSO (0.1%, vehicle control) or test compound (e.g., 5 μM of phenoxazine or acridone compound) for one hour and then stimulated with IGF-I (10 ng/ml) for 20 minutes. Cells are preferably washed twice with PBS and fixed in 4% formaldehyde for 30 minutes at room temperature. The samples are then rinsed twice with PBS and permeabilized with 1% Triton X-100 for five minutes at room temperature. After rinsing twice with PBS, the cells are incubated with an anti-AKT antibody (available from Rockland, West Chester, Pa.) (1:50 dilution) for 45 minutes at 37° C. […] After rinsing twice with PBS, the slides can be mounted in media containing TOPRO-3 (also available from Molecular Probes) and analyzed by routine confocal microscopy.
Upon activation, AKT translocates to the nucleus (see, e.g., Biggs et al. Proc. Natl. Acad. Sci. USA 1999;96:7421-7426; Brownawell et al. Mol. Cell. Biol. 2001;21:3534-3546; Brunet et al. Cell 1999;96:857-868; and Rena et al. J. Biol. Chem. 1999;274:17179-17183). […] Cellular localization of AKT may then be assessed, e.g. by confocal microscopy.

Rh18 cells = assay: Determination of apoptosis (Annexin V-FITC/propidium iodide flow cytometry), Rh18 cells; conditions: Rh18, 7.5 μM, four days, n = 3
Method: Determination of apoptosis. An ApoAlert™ Annexin V-FITC Apoptosis kit (available from Clontech, Palo Alto, Calif.) can be used to evaluate the extent of apoptosis within cell populations. Cells (Rh1: 350,000 per 75-cm^2 flask; Rh18: 800,000 per 75-cm^2 flask; or Rh30: 500,000 per 75-cm^2 flask) are preferably grown overnight in complete medium. On day 1, cells are treated with DMSO (0.1%; vehicle control) or with a test compound (e.g., a phenoxazine or acridone compound). After 4 days, the cells are trypsinized, washed with PBS, and resuspended in 200 μl of binding buffer. Cells are then incubated with 10 μl of annexin V-FITC (final concentration, 1 μg/ml) and 500 ng of propidium iodide in a final volume of 410 μl. Cells are preferably incubated at room temperature in the dark for ten minutes before flow cytometric analysis with an FACSCalibur™ Flow Cytometry System (Becton Dickinson, San Jose, Calif.).
For instance, Rh1, Rh18 and/or Rh30 cells can be grown in complete medium with 0.1% DMSO (as a negative control) or with one or more test compounds, e.g., any of the phenoxazine compounds listed in Table I, above, including but not limited to the compounds 10B, 11B, 13B, 14B or 15B. […] Cells are then harvested, and the extent of apoptosis evaluated, e.g., by an ApoAlert™ (Clontech, Palo Alto, Calif.) flow cytometric assay.

AKT [2] = assay: Inhibition of IGF-I stimulated AKT phosphorylation (Ser473) in Rh1 cells, Western blot; assay type: cell-based, human; conditions: for inhibition of AKT phosphorylation: 2.5 μM, Rh1 cells serum free, IGF-I; for Inhibition (phosphorylation of AKT at Ser 473): 5 μM, 1 hour, serum starved Rh1 cells, IGF-I 10 ng/ml 10 minutes, average of two experiments
Method: Cell lines and growth conditions. The human cell lines Rh1, Rh18, and Rh30 (ATCC Deposit # CRL 2061) have been described, e.g., by Hazelton et al. Cancer Res 1987;47:4501-4507 and Hosoi et al. Cancer Res. 1999;59:886-894. Rh1, Rh18 and Rh30 cells can each be grown in antibiotic free RPMI-1640 medium (available from BioWhittaker, Walkersville, Md.), supplemented with 10% fetal bovine serum (available from HyClone Laboratories, Logan, Utah) and 2 mM L-glutamine (available from BioWhittaker, Walkersville, Md.) at 37° C. in an atmosphere of 5% CO2. For serum free experiments, cells can be cultured in modified N2E (MN2E) medium (DMEM/F-12, 1:1 mixture) (Sigma, St. Louis, Mo.) supplemented with 1 μg/ml human holo transferrin, 30 nM sodium selenite, 20 nM progesterone, 100 μM putrescine, 30 nM vitamin E phosphate, and 50 μM ethanolamine. Cells in MN2E medium containing 5 μg/ml bovine fibronectin (available from Sigma, St. Louis, Mo.) are preferably plated, and allowed to attach overnight at 37° C. in a humidified, 5% CO2 atmosphere.
Cellular screening for inhibitors. Rh1, Rh18 and Rh30 cells can each be seeded at a density of 4×10^6/10-cm plate in serum-free medium for overnight attachment. The cells can then be exposed to 0.1% DMSO or to a test compound (for example, a phenoxazine or acridone compound) for one hour, then stimulated with Insulin-like growth factor-I (IGF-I) (10 ng/ml) for 10 minutes.
Western blot analysis. Cells are rapidly washed with ice-cold phosphate-buffered saline (PBS), placed on ice, and lysed in mammalian protein extraction reagent (M-PER; available from Pierce, Rockford, Ill.) containing one Complete™ mini protease inhibitor tablet (available from Boehringer Mannheim, Mannheim, Germany), 1 mM phenylmethylsulfonyl fluoride, 1 mM Na3VO4 and 1 mM NaF. Cellular debris is pelleted by centrifugation at 17,500×g for 10 minutes at 4° C. The protein concentration of the supernatants is measured by the bicinchoninic acid assay (e.g., using the BCA™ Protein Assay Kit, Pierce, Rockford, Ill., catalog number 23225 or 23227) using bovine serum albumin as the standard.
For the analysis of AKT, ERK-1/2, mTOR, p70S6 kinase, ribosomal protein S6 (rpS6 or S6), and glycogen synthase kinase 3 (GSK-3), equivalent amounts of protein can be separated on a 12% SDS-polyacrylamide gel (available from BioRad, Hercules, Calif.) by electrophoresis and subsequently transferred to a nitrocellulose membrane (also available from BioRad). After a 1 hour incubation in 1×TBS containing 0.05% Tween 20 and 5% blocking reagent (skim milk) (available from Upstate Biotechnology, Lake Placid, N.Y.) at room temperature, the wet nitrocellulose membranes are incubated with appropriate antibodies (available from Cell Signaling Technology, Beverly, Mass.): rabbit polyclonal antiserum specific for the phosphorylated Ser473 or Thr308 of AKT (dilution 1:1000); rabbit polyclonal antiserum specific for phosphorylated Thr202/Tyr204 of ERK-1/2 (dilution 1:1000); rabbit polyclonal antiserum specific for phosphorylated Ser2448 or Ser2481 of mTOR (dilution 1:1000); rabbit polyclonal antiserum specific for phosphorylated Thr389 of p70S6 kinase (dilution 1:4000); rabbit polyclonal antiserum specific for phosphorylated Ser235/236 of rpS6 (dilution 1:1000); or rabbit polyclonal antiserum specific for phosphorylated Ser21/9 of GSK-3α/β (dilution 1:1000). Horseradish peroxidase-conjugated goat anti-rabbit IgG antibody (dilution 1:10,000) can be used as the secondary antibody. Immunoreactive protein can be visualized using Renaissance chemiluminescence reagent (available from Life Science Products Inc., Boston, Mass.).
For these assays, Rh1 cells are seeded in serum-free medium for overnight attachment. The serum starved Rh1 cells are then exposed to 1-5 μM of a compound in Table I for 1 hour before stimulating with IGF-I (10 ng/ml) for 10 minutes. […]

Row | Compound | nuclear localization of AKT (AKT [1]) | Percentage of cells ± SD, Apoptotic (Rh18 cells) [%] | Percentage of cells ± SD, Viable (Rh18 cells) [%] | inhibition of AKT phosphorylation (AKT [2]) | Inhibition (phosphorylation of AKT at Ser 473) (AKT [2])
1 | CCN(CC)CCCCN1c2ccccc2Oc2ccc(Cl)cc21 [Compound 10B, 10-[4′-(N-diethylamino)butyl]-2-chlorophenoxazine] | block in nuclear localization occurs | 34.33 ± 6.13 | 65.00 ± 2.94 | complete inhibition | ++++ (++++ ≈ 100% inhibition)
2 | 10-[4′-[(β-hydroxyethyl)piperazino]butyl]-2-chlorophenoxazine [Compound 15B] | block in nuclear localization occurs | 32.70 ± 8.99 |  | complete inhibition | ++++ (++++ ≈ 100% inhibition)
